Legend:
[1] = Hematology (ANC, lymphocytes, hemoglobin, platelets) during etoposide and carboplatin chemotherapy; assay type: in vivo, human; details: 200 mg/m^2 with etoposide and carboplatin
From the text: As shown in FIG. 63A the absolute neutrophil count though affected by chemotherapy rarely dipped below the G1 phase. As shown in FIG. 63B the lymphocyte count though affected by chemotherapy rarely dipped below the G1 phase. As shown in FIG. 63C the hemoglobin concentration though affected by chemotherapy rarely dipped below the G1 phase. As shown in FIG. 63D the platelet count though affected by chemotherapy rarely dipped below the G1 phase.

[2] = Blood cell counts in mice after 5-Fluorouracil with or without Compound 1; assay type: in vivo; details: Compound 1 100 mg/kg before 5FU
Method: Blood cell counts for neutrophils, lymphocytes, red blood cells (RBCs), and platelets were conducted.

CN1CCN(c2ccc(Nc3ncc4cc5n(c4n3)C3(CCCCC3)CNC5=O)nc2)CC1 [Compound 1, 2′-((5-(4-methylpiperazin-1-yl)pyridin-2-yl)amino)-7′,8′-dihydro-6′H-spiro[cyclohexane-1,9′-pyrazino[1′,2′:1,5]pyrrolo[2,3-d]pyrimidin]-6′-one]
myelotoxicity (ANC, lymphocyte count, hemoglobin, platelet count) [1]: no clinically relevant myelotoxicity | loss of lymphocytes upon 5FU chemotherapy [2]: significantly less loss | loss of neutrophils upon 5FU chemotherapy [2]: significantly less loss | loss of platelets upon 5FU chemotherapy [2]: significantly less loss | loss of red blood cells upon 5FU chemotherapy [2]: significantly less loss

From patent publication US20160220569A1, “CDK4/6 Inhibitor Dosage Formulations For The Protection Of Hematopoietic Stem And Progenitor Cells During Chemotherapy” (G1 Therapeutics, Inc., priority 2015, published 2016)
